Measured values from patent publication US7939263B2, “Compositions and methods for treating and diagnosing cancer” (The Regents of the University of Michigan, priority 2005, dated 2011).

Test system: PE13 passaged human breast tumor cells
Experiment: Xenograft tumor growth after gamma secretase inhibition
Assay type: in vivo
Experimental: A) The average tumor volume from L-685-458 treated (n=5) versus control (n=7) animals is plotted for each day measured over 37 days. B) The tumor volume of individual L-685-458 treated and control mice is plotted for each day measured.
In alternative embodiments, gamma secretase activity was decreased using the small-molecule inhibitor L-685,458 (Yan et al., 2004, J. Neurosci. 24:2942) and the effect on tumor growth was assessed in a xenograft model. 20,000 PE13 passaged human breast tumor cells were injected into the mammary fat pads of NOD/SCID mice. The mice were then injected subcutaneously daily with 9 mg/kg L-685,458 (n=5) or vehicle control (n=7) for 25 days. Starting on day 11, the tumor volume was measured three times a week for a total of 48 days. […] The tumor volumes for individual mice are plotted in FIG. 13B. Thus inhibiting gamma secretase activity by using a small molecule gamma secretase inhibitor predicted to reduce Notch signaling reduced tumor growth.

For `CC(C)C[C@H](NC(=O)[C@H](Cc1ccccc1)C[C@@H](O)[C@H](Cc1ccccc1)NC(=O)OC(C)(C)C)C(=O)N[C@@H](Cc1ccccc1)C(N)=O` [L-685,458], the “growth of injected tumor cells” value (20,000 PE13 cells in mammary fat pads of NOD/SCID mice, 9 mg/kg subcutaneously daily for 25 days (n=5) vs vehicle control (n=7)) was “significantly inhibited the growth of injected tumor cells” and the average tumor volume (NOD/SCID mice, 9 mg/kg s.c. daily for 25 days, measured three times a week from day 11, total 48 days, vs vehicle control) was “reduced compared to control animals throughout the study”.
